The values below come from patent US20110206739A1, “COMPOSITIONS AND METHODS FOR THE PREPARATION OF NANOEMULSIONS” (UNIVERSITY OF MASSACHUSETTS, priority 2008, published 2011).

Data set [1] has as its system Malme-3M melanoma cancer cells. The experiment in a line: Curcumin cell inhibition, MTS assay after 72 hrs. The data set is classed as cell-based, human. As for the experimental part: The curcumin nanoemulsion was prepared by combining gelatin and EMG-20 or gelatin and Solutol® HS15 in a 1:1 weight ratio. The cell inhibition activity of the blank nanoemulsion, a 30 micromolar DMSO-curcumin mixture, a 0.030 micromolar DMSO-curcumin mixture, and a 0.03 micromolar curcumin nanoemulsion were contacted with melanoma cancer cell lines.
On the technique in general: Tetrazolium dyes change colour on reduction, which living cells bring about.

Data set [2] is described as follows: Electrokinetic potential (zeta potential). It is filed as physicochemical. The conditions noted are these: at 10 mv. As for the experimental part:
The electrokinetic potential (“Zeta-potential”) of the curcumin nanoemulsion was measured (FIG. 10A) and compared to the corresponding electrokinetic potential for curcumin in water (FIG. 10B). The zeta potential of a colloidal system corresponds to the electric potential in the interfacial double layer (DL) at the location of the slipping plane versus a point in the bulk fluid away from the interface (i.e., the potential difference between the dispersion medium and the stationary layer of fluid attached to the dispersed particle). For small particles (e.g., nanoemulsions) a higher zeta potential corresponds to greater stability of a colloidal dispersion, representing a greater degree of repulsion between adjacent particles in the dispersion to resist particle/droplet aggregation. A zeta potential of −23.5 (wall zeta potential of −50.3) was measured for the curcumin nanoemulsion (FIG. 10A), compared to a zeta wall potential at 10 mv of −2.53 for curcumin in water (FIG. 10B).

For data set [3], the system named is melanoma cancer cells (Malme-3M). Briefly: 5-FU Cell Proliferation Assay (MTS Assay). It is filed as cell-based, human. Particulars: 24 μM, compared with 5-FU nanoemulsion. Here is the method: The in vitro activity of the 5-FU nanoemulsion was measured against three cancer cell lines (CCL-221, Malme-3M, and CCL-2) using a Cell Proliferation Assay (MTS Assay). The MTS Assay uses a tetrazolium compound (MTS) and an electron coupling reagent (PES) was purchased from Fisher Scientific (Pittsburgh, Pa.). The tetrazolium compound (MTS) can be bioreduced into a colored formazan product by dehydrogenase enzymes in metabolic cells. Formazan is a water-soluble compound and can be dissolved in the culture medium, the quantity of formazan product as measured by the absorbance at 490 nm was directly proportional to the number of living cells in culture.
After incubation for 5 hours, the cells were attached to the bottom of the well and the diluted nanoemulsions were then added and incubated for 48 hours. Subsequently, the media were removed by aspiration and 100 microliter of fresh phenol free cell culture media was pipetted followed by adding 20 microliter of MTS reagent into each well. The plate was incubated for 2 hours at 37 degrees C. in a humidified, 5% CO2 atmosphere and the 96-well plate reader was used to measure the absorbance at 490 nm. The 5-FU nanoemulsions prepared in this study had 20 nm average particle size.

In a further data set the test system is CCL-221 cells. The experiment in a line: Paclitaxel growth inhibition, 48 hours. Particulars: CCl-221, after 48 hours of treatment. The data set is classed as cell-based, human. The source says: (§1) The graphs indicate a 60% and 52% growth inhibition when treated with paclitaxel in DMSO and paclitaxel in nanoemulsion respectively. […] The error bars represent the standard error of mean for experiments done in duplicates.

For a further data set, the system named is P10.05 cells. The experiment in a line: Paclitaxel growth inhibition, 48 hours. It is filed as cell-based, human. Particulars: P10.05, after 48 hours of treatment.
From the text: as §1

Another data set has as its system PL-45 cells. Briefly: Paclitaxel growth inhibition, 48 hours. The conditions noted are these: PL-45, after 48 hours of treatment. The data set is classed as cell-based, human. Here is the method:
FIG. 16C is a graph showing dose-dependant anti cancer activity of paclitaxel in DMSO and paclitaxel in a nanoemulsion made up of rice bran oil and Solutol® HS15 against PL-45 cells after 48 hours of treatment. The graphs indicate a 44% and 40% growth inhibition when treated with paclitaxel in DMSO and paclitaxel in nanoemulsion respectively. […] The error bars represent the standard error of mean for experiments done in duplicates.

Data set [4] in a line: Particle size by dynamic laser light scattering (Malvern Zetasizer-S). The data set is classed as physicochemical. Here is the method:
Unless otherwise indicated, “average particle size” refers to the z-average particle or droplet diameter measured by dynamic laser light scattering, also called Photon correlation spectroscopy (e.g., using the Malvern Zetasizer-S instrument, Malvern Instruments Inc., Southborough Mass.). Unless otherwise indicated, the z-average particle sizes were determined using the Malvern Zetasizer-S instrument with a 4 mW He—Ne laser operating at a wavelength of 633 nm and an avalanche photodiode detector (APD). The z-average diameter is the mean hydrodynamic diameter and the polydispersity index is an estimate of the width of the distribution. Both z-average diameter and polydispersity index (“PDI”) are calculated according to the International Standard on dynamic light scattering, ISO13321.
(§2) Particle sizes of all the formulations indicated in the Examples below were measured by dynamic laser light scattering, also called Photon correlation spectroscopy, using the Malvern Zetasizer-S instrument (Malvern Instruments Inc., Southborough Mass.). […] The particle diffusion (translational diffusion) due to Brownian motion was measured in the instrument and related to the size of the parameter. The mean hydrodynamic diameter (DH) was calculated from the Strokes-Einstein equation. The range of particle sizes which can be measured by the Zetasizer is from 0.6 to 6000 nm.

Data set [5] is described as follows: Stability of Coumarin preparations over several days stored at room temperature (size, PDI). It is filed as physicochemical. Particulars: for Size: in nm (unit assumed).
From the text: The fluorescence intensity of a Coumarin 6 nanoemulsion can be increased by adding a polysaccharide polymer such as dextran to the SANE formulation. As described in Example 2, the fluorescent dye Coumarin 6 SANE composition can optionally comprise dextran to increase fluorescence intensity of the SANE dye composition. Example 2 describes preparation of Coumarin 6 SANE dye formulations with and without the addition of the polymer dextran. Example 2 also describes measured particle size, stability and fluorescence intensity determined in samples of (a) DMSO coumarin 6 preparation, (b) nanoemulsion of coumarin 6 preparation without dextran, and (c) nanoemulsion of coumarin 6 with dextran.
As shown by the data in Table 2 is that over a 3 day period, these SANE preparations of Coumarin 6 were stable (determined by particle size changes) at room temperature for at least 3 days compared to the DMSO coumarin 6 preparation.
as §2, with “Mass.). Each sample was diluted immediately before measurement with distilled water to avoid multiple light scattering effects.” for “Mass.).”

As for `COc1cc(/C=C/C(=O)CC(=O)/C=C/c2ccc(O)c(OC)c2)ccc1O` [curcumin in DMSO, (1E,6E)-1,7-bis(4-hydroxy-3-methoxyphenyl)-1,6-heptadiene-3,5-dione], the “inhibition of melanoma cancer cell proliferation” value was “efficacy against the melanoma cancer cells is lost” in data set [1] (0.03 micromolar) and “inhibited melanoma cancer cell proliferation” in data set [1] (30 micromolar).

As for `COc1cc(/C=C/C(=O)CC(=O)/C=C/c2ccc(O)c(OC)c2)ccc1O` [curcumin in water, (1E,6E)-1,7-bis(4-hydroxy-3-methoxyphenyl)-1,6-heptadiene-3,5-dione], the zeta wall potential in data set [2] was −2.53.

Take `O=c1[nH]cc(F)c(=O)[nH]1` [non-encapsulation 5-FU, 5-fluorouracil]: in data set [3], the “inhibition of cell proliferation” value is on record as “not as effective”.

For `CC(=O)O[C@H]1C(=O)[C@@]2(C)[C@H]([C@H](OC(=O)c3ccccc3)[C@]3(O)C[C@H](OC(=O)[C@H](O)[C@@H](NC(=O)c4ccccc4)c4ccccc4)C(C)=C1C3(C)C)[C@]1(OC(C)=O)CO[C@@H]1C[C@@H]2O` [paclitaxel in DMSO, paclitaxel], the growth inhibition in the data set on CCL-221 cells was found to be 60%; in the data set on P10.05 cells, 60%; with PL-45 cells, 44%. Also, the “average particle (droplet) size, Z-average” value in data set [4] was ≥ 1,000 nm.

For the molecule Coumarin 6 [DMSO COUMARIN], the PDI amounted to 0.457 in data set [5] (0 hrs); 0.857 in data set [5] (72 hrs); 0.857 in data set [5] (96 hrs); 0.857 in data set [5] (120 hrs); 0.857 in data set [5] (144 hrs); 0.857 in data set [5] (240 hrs). For the same molecule, the Size in data set [5] (0 hrs) is listed as 1373; in data set [5] (72 hrs), 1373; in data set [5] (96 hrs), 2142; in data set [5] (120 hrs), 6000; in data set [5] (144 hrs) it was 6000; in data set [5] (240 hrs), 6000.
